Data taken from patent US20150225404A1, “PYRIDINE DERIVATIVE AND MEDICINE” (NIPPON SHINYAKU CO., LTD., priority 2012, published 2015).
Where a name gives a salt, the structure may show the parent alone.

The compounds below were run against T1, human mGluR5 (Homo sapiens, UniProt P41594) (assay: Experiment for receptor function of mGluR5 (Ca2+-dependent fluorescence, FLIPR, CHO-K1 cells stably expressing human mGluR5)). Details: L-glutamic acid 10 μM, Fluo-4 fluorescence.
T1 construct: expressed in transfected cells
T1 sequence (P41594 21-1212): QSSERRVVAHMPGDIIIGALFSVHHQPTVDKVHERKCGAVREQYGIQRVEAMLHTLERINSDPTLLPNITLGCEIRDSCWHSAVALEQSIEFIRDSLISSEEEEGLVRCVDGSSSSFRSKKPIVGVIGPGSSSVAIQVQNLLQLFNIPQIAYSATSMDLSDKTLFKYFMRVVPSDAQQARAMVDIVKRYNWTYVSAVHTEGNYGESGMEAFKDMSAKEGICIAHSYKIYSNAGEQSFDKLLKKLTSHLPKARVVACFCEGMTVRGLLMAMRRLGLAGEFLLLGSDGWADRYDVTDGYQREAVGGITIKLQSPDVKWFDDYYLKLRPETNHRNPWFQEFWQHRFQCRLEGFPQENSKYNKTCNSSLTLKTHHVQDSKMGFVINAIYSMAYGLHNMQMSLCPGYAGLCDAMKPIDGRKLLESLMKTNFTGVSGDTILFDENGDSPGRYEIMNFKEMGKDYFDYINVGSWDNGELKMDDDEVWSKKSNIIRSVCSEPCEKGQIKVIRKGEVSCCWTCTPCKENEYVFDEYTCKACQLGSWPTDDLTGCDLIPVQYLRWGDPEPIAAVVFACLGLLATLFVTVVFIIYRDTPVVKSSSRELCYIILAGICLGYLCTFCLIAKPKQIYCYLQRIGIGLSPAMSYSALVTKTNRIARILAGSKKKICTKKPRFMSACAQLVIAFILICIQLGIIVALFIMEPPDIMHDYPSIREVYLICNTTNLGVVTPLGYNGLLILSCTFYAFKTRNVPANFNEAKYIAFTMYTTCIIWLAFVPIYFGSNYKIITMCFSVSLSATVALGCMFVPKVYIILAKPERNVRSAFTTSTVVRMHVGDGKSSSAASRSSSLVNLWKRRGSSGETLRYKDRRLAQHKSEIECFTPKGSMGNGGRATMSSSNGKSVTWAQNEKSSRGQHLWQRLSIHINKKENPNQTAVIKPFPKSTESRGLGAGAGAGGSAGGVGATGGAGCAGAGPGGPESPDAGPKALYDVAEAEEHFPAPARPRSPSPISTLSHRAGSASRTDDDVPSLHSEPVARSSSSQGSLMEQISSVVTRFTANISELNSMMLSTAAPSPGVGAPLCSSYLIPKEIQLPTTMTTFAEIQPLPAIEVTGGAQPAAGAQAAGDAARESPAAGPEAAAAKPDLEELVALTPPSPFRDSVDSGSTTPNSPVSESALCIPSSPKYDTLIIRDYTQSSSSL
Assay type: cell-based
Description: Stable expression cells in which the human mGluR5 gene had been introduced into a Chinese hamster ovary cell (CHO-K1) were used for evaluation. The cells were suspended in a growth medium (MEM-α (D8042, available from Sigma) containing 10% inactivated FBS (Cat. No. 171012, available from CCB) and 2 mM glutamax (Cat. No. 35050, available from GIBCO)) and seeded on a black clear-bottom 96-well plate at 100,000 cells per well. One day after seeding, the medium was replaced by a medium (Hanks' balanced salt solution (HBSS buffer solution) (20 mM HEPES, 2.5 mM probencide (165-15472, available from Wako Pure Chemical Industries, Ltd.), and 10×HBSS (14065-056, available from Gibco) diluted 10 times, pH 7.4)) containing a calcium-sensitive dye Fluo-4 AM at a final concentration of […] (F312, available from Dojindo Laboratories) and Pluronic F-127 at a final concentration of 0.0145% (P-2443, available from Sigma), followed by incubation at 37° C. for one hour, thereby loading Fluo-4 AM into the cells.
Subsequently, the cells were washed twice with an HBSS buffer solution, to which was subsequently added the same buffer solution. Twenty minutes thereafter, the plate was transferred into a fluorescence screening system (FLIPR TETRA, available from Molecular Devices, LLC) and measured for a Ca^2+-dependent fluorescence change in the cells.
First of all, a fluorescence baseline was measured, and thereafter, fluorescence measurement was performed for 2 minutes while adding a test substance, an excessive amount of 6-methyl-2-(phenylethynyl)pyridine (hereinafter referred to as “MPEP”) (final concentration: 10 μM), or the medium. Thereafter, fluorescence measurement was carried out for one minute while adding L-glutamic acid (final concentration: 10 μM).
While taking a fluorescence intensity caused by L-glutamic acid as 100% and a fluorescence intensity caused by L-glutamic acid in the presence of MPEP as 0%, respectively, function inhibitory activity against human mGluR5 was evaluated from the fluorescence intensity caused by L-glutamic acid in the presence of the test substance at each concentration, and an IC50 value was estimated according to a logistic equation (SAS System).

SMILES | IC50 [nM]
c1ccc(COc2cc(-c3cccnc3)c3c(n2)CCCCC3)nc1 [Example 232, 4-(Pyridin-3-yl)-2-(pyridin-2-ylmethoxy)-6,7,8,9-tetrahydro-5H-cyclohepta[b]pyridine] | 28.9
N#Cc1cccc(COc2cc(-c3cccnc3)c3c(n2)CCC3)c1 [Example 245, 3-({[4-(Pyridin-3-yl)-6,7-dihydro-5H-cyclopenta[b]pyridin-2-yl]oxy}methyl)benzonitrile] | 39
Cc1cc(COc2cc(-c3cncnc3)c3c(n2)CCC3)ccn1 [Example 256, 2-[(2-Methylpyridin-4-yl)methoxy]-4-(pyrimidin-5-yl)-6,7-dihydro-5H-cyclopenta[b]pyridine] | 62.8
Cc1ncc(-c2cc(OCc3ccccn3)nc3c2CCCC3)cn1 [Example 168, 4-(2-Methylpyrimidin-5-yl)-2-(pyridin-2-ylmethoxy)-5,6,7,8-tetrahydroquinoline] | 153
N#Cc1ccc(COc2cc(-c3cncnc3)c3c(n2)CCC3)cc1 [Example 258, 4-({[4-(Pyrimidin-5-yl)-6,7-dihydro-5H-cyclopenta[b]pyridin-2-yl]oxy}methyl)benzonitrile] | 10.1
c1ccc(COc2cc(-c3cncs3)c3c(n2)CCCC3)nc1 [Example 224, 2-(Pyridin-2-ylmethoxy)-4-(1,3-thiazol-5-yl)-5,6,7,8-tetrahydroquinoline] | 25.6
Cc1cccc(COc2cc(-c3cncnc3)c3c(n2)CCCC3)n1 [Example 152, 2-[(6-Methylpyridin-2-yl)methoxy]-4-(pyrimidin-5-yl)-5,6,7,8-tetrahydroquinoline] | 44.8
c1ccc(COc2cc(-c3cccnn3)c3c(n2)CCC3)nc1 [Example 271, 4-(Pyridazin-3-yl)-2-(pyridin-2-ylmethoxy)-6,7-dihydro-5H-cyclopenta[b]pyridine] | 92
Nc1ncc(-c2cc(OCc3cccc(F)c3)nc3c2CCC3)cn1 [Example 263, 5-{2-[(3-Fluorobenzyl)oxy]-6,7-dihydro-5H-cyclopenta[b]pyridin-4-yl}pyrimidin-2-amine] | 111
Cc1ncc(-c2cc(OCc3ccc(F)cn3)nc3c2CCC3)cn1 [Example 40, 2-[(5-Fluoropyridin-2-yl)methoxy]-4-(2-methylpyrimidin-5-yl)-6,7-dihydro-5H-cyclopenta[b]pyridine hydrochloride] | 78
N#Cc1ccc(COc2cc(-c3cccnn3)c3c(n2)CCC3)cc1 [Example 273, 4-({[4-(Pyridazin-3-yl)-6,7-dihydro-5H-cyclopenta[b]pyridin-2-yl]oxy}methyl)benzonitrile] | 62
N#Cc1ccc(-c2cc(OCc3ccccn3)nc3c2CCC3)cc1F [Example 66, 2-Fluoro-4-[2-(pyridin-2-ylmethoxy)-6,7-dihydro-5H-cyclopenta[b]pyridin-4-yl]benzonitrile] | 108
Fc1ccc(COc2cc(-c3cccnc3F)c3c(n2)CCCC3)nc1 [Example 138, 4-(2-Fluoropyridin-3-yl)-2-[(5-fluoropyridin-2-yl)methoxy]-5,6,7,8-tetrahydroquinoline hydrochloride] | 95
Fc1cccc(-c2cc(OCc3ccccn3)nc3c2CCC3)c1 [Example 58, 4-(3-Fluorophenyl)-2-(pyridin-2-ylmethoxy)-6,7-dihydro-5H-cyclopenta[b]pyridine] | 55.6
N#Cc1ncc(-c2cc(OCc3ccccn3)nc3c2CCC3)cn1 [Example 37, 5-[2-(Pyridin-2-ylmethoxy)-6,7-dihydro-5H-cyclopenta[b]pyridin-4-yl]pyrimidine-2-carbonitrile hydrochloride] | 79
Fc1ccc(COc2cc(-c3cncnc3)c3c(n2)CCC3)nc1 [Example 25, 2-[(5-Fluoropyridin-2-yl)methoxy]-4-(pyrimidin-5-yl)-6,7-dihydro-5H-cyclopenta[b]pyridine] | 60.6
CNc1cncc(-c2cc(OCc3ccccn3)nc3c2CCCC3)n1 [Example 208, N-Methyl-6-[2-(pyridin-2-ylmethoxy)-5,6,7,8-tetrahydroquinolin-4-yl]pyrazin-2-amine hydrochloride] | 125
Fc1cncc(-c2cc(OCc3ccccn3)nc3c2CCCC3)n1 [Example 199, 4-(6-Fluoropyrazin-2-yl)-2-(pyridin-2-ylmethoxy)-5,6,7,8-tetrahydroquinoline hydrochloride] | 24.5
Cc1ccnc(COc2cc(-c3cccnc3)c3c(n2)CCCC3)c1 [Example 85, 2-[(4-Methylpyridin-2-yl)methoxy]-4-(pyridin-3-yl)-5,6,7,8-tetrahydroquinoline] | 178
N#Cc1ccc(COc2cc(-c3ccnc(F)c3)c3c(n2)CCC3)nc1 [Example 252, 6-({[4-(2-Fluoropyridin-4-yl)-6,7-dihydro-5H-cyclopenta[b]pyridin-2-yl]oxy}methyl)pyridine-3-carbonitrile] | 13.5
Cc1ncc(-c2cc(OCc3ccccn3)nc3c2CCCC3)s1 [Example 225, 4-(2-Methyl-1,3-thiazol-5-yl)-2-(pyridin-2-ylmethoxy)-5,6,7,8-tetrahydroquinoline hydrochloride] | 102
Cc1ncc(-c2cc(OCc3cccc(F)n3)nc3c2CCCC3)cn1 [Example 185, 2-[(6-Fluoropyridin-2-yl)methoxy]-4-(2-methylpyrimidin-5-yl)-5,6,7,8-tetrahydroquinoline] | 26
CCC1CCc2c(-c3cncnc3)cc(OCc3ccccn3)nc21 (stereo not drawn) [Example 240, 7-Ethyl-2-(pyridin-2-ylmethoxy)-4-(pyrimidin-5-yl)-6,7-dihydro-5H-cyclopenta[b]pyridine] | 24
N#Cc1cc(COc2cc(-c3cncnc3)c3c(n2)CCCC3)ccn1 [Example 282, 4-({[4-(Pyrimidin-5-yl)-5,6,7,8-tetrahydroquinolin-2-yl]oxy}methyl)pyridine-2-carbonitrile] | 66
N#Cc1cccc(COc2cc(-c3cnc(N)nc3)c3c(n2)CCC3)c1 [Example 265, 3-({[4-(2-Aminopyrimidin-5-yl)-6,7-dihydro-5H-cyclopenta[b]pyridin-2-yl]oxy}methyl)benzonitrile] | 46.8
Nc1cccc(COc2cc(-c3cncnc3)c3c(n2)CCCC3)n1 [Example 157, 6-({[4-(Pyrimidin-5-yl)-5,6,7,8-tetrahydroquinolin-2-yl]oxy}methyl)pyridin-2-amine] | 333
Fc1cccc(COc2cc(-c3cncnc3)c3c(n2)CCCC3)n1 [Example 144, 2-[(6-Fluoropyridin-2-yl)methoxy]-4-(pyrimidin-5-yl)-5,6,7,8-tetrahydroquinoline] | 19.4
Cc1ncc(-c2cc(OCc3ccnc(C#N)c3)nc3c2CCCC3)cn1 [Example 287, 4-({[4-(2-Methylpyrimidin-5-yl)-5,6,7,8-tetrahydroquinolin-2-yl]oxy}methyl)pyridine-2-carbonitrile] | 146
FC(F)(F)c1cccc(COc2cc(-c3cncnc3)c3c(n2)CCCC3)n1 [Example 154, 4-(Pyrimidin-5-yl)-2-{[6-(trifluoromethyl)pyridin-2-yl]methoxy}-5,6,7,8-tetrahydroquinoline hydrochloride] | 280
Oc1cc(F)cc(-c2cc(OCc3ccccn3)nc3c2CCC3)c1 [Example 68, 3-Fluoro-5-[2-(pyridin-2-ylmethoxy)-6,7-dihydro-5H-cyclopenta[b]pyridin-4-yl]phenol] | 92
